Source: US20100069400A1, “METHODS FOR TREATING INFLAMMATION AND RELATED CONDITIONS” (Ore Pharmaceuticals Inc., priority 2008, published 2010)

Columns and labels:
5-HT2A = 5-HT2A (Homo sapiens, UniProt P28223); conditions: cited from earlier work
NF-κB [1] = experiment: in vivo imaging of LPS-induced NF-κB:luciferase reporter activation in NF-κB:LUC transgenic mice; conditions: for LPS-induced NF-κB reporter (fold change from 0 hour), Example 1: 1 or 10 mg/kg p.o. one hour prior to sLPS 2.5 mg/kg i.v., whole body imaging; for LPS-induced NF-κB activation, Example 2 (FIG. 2): repeat experiment
Experimental: Effects of irindalone on rodent physiological processes were evaluated using bio-photonic in vivo imaging. Specifically, this technology was used to investigate temporal and spatial modulation of physiological processes following acute compound administration. Transgenic mice expressing a firefly luciferase reporter driven by a series of promoters that represent a wide spectrum of potential disease states were used. Light emitted by luciferase in the presence of a luciferin substrate was detected and analyzed using a highly sensitive CCD imaging system. Mice were anesthetized and imaged at the indicated time points followed by visual and quantitative analysis based on counting photons of light emitted from specific regions of interest. Observations were followed by confirmatory and additional heuristic studies, including direct measurement of luciferase activity in harvested tissues and organs. As detailed below, the properties of irindalone were analyzed on three distinct transgenic lines, NF-κB:LUC, AP-1:LUC and HO-1:LUC. For this Example, the NF-κB transgenic mouse line was constructed using three NF-κB response elements fused to a firefly luciferase reporter. The effect of acute compound administration on inflammatory and immunomodulatory processes was monitored using activation of the luciferase reporter as a surrogate readout for activation of NF-κB transcription factor. […] For these studies, male mice (n=5 per group) were administered irindalone (0, 1 or 10 mg/kg, p.o.) one hour prior to injection with soluble lipopolysaccharide (sLPS, 2.5 mg/kg, i.v.). Whole body images were obtained prior to drug pretreatment (0 hour time point) and again at 2, 4, and 6 hours post-LPS treatment. […] The intriguing bi-phasic modulation of NF-κB activation described in Example 1 was further investigated by repeating the LPS induction experiment and performing subsequent imaging analysis at 0 hour and 2, 4, 6 and 24 hours post-LPS treatment. Moreover, blood samples were collected at each of the timepoints and plasma was prepared for evaluation of effects of irindalone on quantities of circulating cytokines.

eotaxin = experiment: LPS-induced plasma eotaxin, bead-based immunoassay (Luminex); type: in vivo, mice; conditions: 2-hour time point post-LPS; mouse plasma
Experimental: (§1) The intriguing bi-phasic modulation of NF-κB activation described in Example 1 was further investigated by repeating the LPS induction experiment and performing subsequent imaging analysis at 0 hour and 2, 4, 6 and 24 hours post-LPS treatment. Moreover, blood samples were collected at each of the timepoints and plasma was prepared for evaluation of effects of irindalone on quantities of circulating cytokines. […] Specifically, irindalone suppressed LPS-induced pro-inflammatory cytokines eotaxin (FIG. 3A) and TNF-α (FIG. 3B) at the 2-hour time point and IL-1α at both 2 hours and 6 hours post-LPS injection (FIG. 3C).

TNF-α = experiment: LPS-induced plasma TNF-α, bead-based immunoassay (Luminex); type: in vivo, mice; conditions: 2-hour time point post-LPS; mouse plasma
Experimental: as §1

IL-1α = experiment: LPS-induced plasma IL-1α, bead-based immunoassay (Luminex); type: in vivo, mice; conditions: mouse plasma
Experimental: as §1

IL-10 = experiment: LPS-induced plasma IL-10, bead-based immunoassay (Luminex); type: in vivo, mice; conditions: all time points measured (2, 4, 6, 24 hours post-LPS), most pronounced at 2 and 4 hours; mouse plasma
Experimental: as §1

NF-κB [2] = experiment: LPS-induced NF-κB activation in harvested organs and tissues (luciferase/protein assay) of NF-κB:LUC transgenic mice; type: in vivo; conditions: 10 mg/kg p.o. one hour prior to LPS 2.5 mg/kg i.v.; 2 hours post-LPS; most pronounced changes in visceral fat, gastrointestinal tract and brain
Experimental: To determine whether these effects can be localized to a particular tissue or organ system, additional experimentation was performed (similar in design to that as described in Example 1). For these studies, male mice (n=5 per group) were administered irindalone (0 and 10 mg/kg, p.o.) one hour prior to injection with LPS (2.5 mg/kg, i.v.). Whole body images were obtained prior to drug pretreatment (0 hour) and again at 2 hours post-LPS treatment (data not shown). A broad collection of internal tissues and organs were then removed and snap frozen for further analysis. Specifically, harvested tissues were homogenized, cells were lysed and utilized for luciferase and protein quantification assays to obtain relative units of light/μg protein. Results (FIG. 4) illustrate normalized comparisons between LPS alone versus irindalone+LPS.

AP-1 = experiment: TPA-induced AP-1:LUC reporter activation in skin of AP-1:LUC transgenic mice; type: in vivo; conditions: irindalone 1 and 10 mg/kg p.o. (dose-dependent) or DEX 4.5 mg/kg i.p. one hour prior to topical TPA 10 μg
Experimental: The AP-1:LUC transgenic line was constructed with four copies of the AP-1 response element fused to a firefly luciferase reporter. […] For the current studies, the backs of mice (n=5 per group) were shaved (area size approximately 1.5×3 cm) and pre-imaged. Mice were administered vehicle (saline), irindalone (dosing at 1 and 10 mg/kg; p.o.) or dexamethasone as a positive control (DEX, 4.5 mg/kg, i.p.) one hour prior to topical application of the phorbol ester 12-O-tetradecanoyl-phorbol-13-acetate (TPA, 0.05 mg/ml in acetone; total dose 10 μg).

HO-1 promoter = experiment: CdCl2-induced HO-1:LUC promoter activation in HO-1:LUC transgenic mice; type: in vivo
Source text: The HO-1 luciferase transgenic mouse line was constructed using 15,000 base pairs of the HO-1 promoter fused to a firefly luciferase reporter. The HO-1 promoter is highly responsive to oxidative stress, hypoxia and other stimuli that influence the oxidative state of the animal. Increased expression of the HO-1 pathway limits tissue damage in response to a wide variety of proinflammatory stimuli associated with oxidative stress including hypoxia, hyperoxia, cytokines, nitric oxide (NO), heavy metals, ultraviolet-A radiation, heat shock, shear stress, hydrogen peroxide, and thiol (—SH)-reactive substances, endotoxin, allograft rejection, etc. This promoter region has several enhancer sequences that confer responsiveness to the wide set of stimuli mentioned above. In this mouse model, luciferase expression is an indicator of the induction of the HO-1 promoter/gene expression. In order to assess the ability of irindalone to modulate the oxidative state of mice stressed with cadmium chloride (CdCl2), male mice (n=5 per group) were dosed with irindalone (0, 1 or 10 mg/kg, p.o.) one hour prior to injection with CdCl2 (2 mg/kg, i.v.). Whole body images were obtained prior to irindalone pretreatment (0 hour) and again at 4, 6, and 24 hours post-CdCl2 treatment. Irindalone suppressed CdCl2-induced luciferase expression (FIG. 6). […] Additional anatomical regions also posted trends in suppression at early time points.

IL-13 = experiment: plasma IL-13 in normal unstimulated rats, bead-based multiplex immunoassay (Luminex); type: in vivo; conditions: 1 and 5 mg/kg oral twice daily for 7 days, blood approximately 4 hours after last dose
Experimental: (§2) The effects of irindalone were also investigated in normal unstimulated rats that were subject to twice-daily oral dosing with irindalone (1 and 5 mg/kg) for 7 consecutive days. Blood was collected approximately 4 hours after administration of the last dose, plasma was prepared and cytokines were measured using a bead-based multiplex immunoassay (Luminex Corp.).

CXCL1 (GRO/KC) = experiment: plasma CXCL1 (GRO/KC) in normal unstimulated rats, bead-based multiplex immunoassay (Luminex); type: in vivo; conditions: 1 and 5 mg/kg oral twice daily for 7 days, blood approximately 4 hours after last dose, not dose-proportionately
Experimental: as §2

adrenergic receptor al = conditions: compared with its 5-HT2A affinity; cited from earlier work
histamine H1 receptor = histamine H1 receptor (Homo sapiens, UniProt P35367); conditions: compared with its 5-HT2A affinity; cited from earlier work
Chain of histamine H1 receptor (P35367 whole entry, species assumed): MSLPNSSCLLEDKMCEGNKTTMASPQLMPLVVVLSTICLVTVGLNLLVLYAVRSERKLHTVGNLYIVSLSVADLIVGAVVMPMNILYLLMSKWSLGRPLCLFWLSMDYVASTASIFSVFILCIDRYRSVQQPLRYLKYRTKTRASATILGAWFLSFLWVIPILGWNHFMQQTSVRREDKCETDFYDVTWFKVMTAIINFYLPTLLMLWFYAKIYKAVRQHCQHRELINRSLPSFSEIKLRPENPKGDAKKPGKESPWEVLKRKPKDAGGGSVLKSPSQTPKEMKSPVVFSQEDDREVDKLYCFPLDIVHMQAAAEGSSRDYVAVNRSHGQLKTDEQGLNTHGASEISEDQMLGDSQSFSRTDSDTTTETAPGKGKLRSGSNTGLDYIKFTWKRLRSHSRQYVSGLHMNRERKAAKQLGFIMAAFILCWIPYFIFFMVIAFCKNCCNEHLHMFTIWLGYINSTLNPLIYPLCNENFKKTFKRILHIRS

Chain of 5-HT2A (P28223 whole entry, species assumed): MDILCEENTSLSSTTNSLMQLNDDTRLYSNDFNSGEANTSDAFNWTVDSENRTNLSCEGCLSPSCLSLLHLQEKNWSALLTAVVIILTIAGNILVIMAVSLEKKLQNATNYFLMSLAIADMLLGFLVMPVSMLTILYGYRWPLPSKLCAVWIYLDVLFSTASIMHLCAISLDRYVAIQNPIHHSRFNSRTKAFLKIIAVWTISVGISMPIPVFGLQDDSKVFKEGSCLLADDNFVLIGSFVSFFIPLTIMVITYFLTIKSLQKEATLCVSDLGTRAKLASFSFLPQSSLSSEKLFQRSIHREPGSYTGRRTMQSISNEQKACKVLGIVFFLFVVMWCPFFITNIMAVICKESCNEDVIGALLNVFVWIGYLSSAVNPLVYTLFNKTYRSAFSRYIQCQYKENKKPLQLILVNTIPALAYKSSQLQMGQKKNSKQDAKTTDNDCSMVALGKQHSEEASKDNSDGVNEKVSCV

| SMILES | 5-HT2A affinity, in words (5-HT2A; compared with irindalone) | LPS-induced NF-κB reporter (fold change from 0 hour), Example 1 (NF-κB [1]; after 2 hours) | LPS-induced NF-κB reporter (fold change from 0 hour), Example 1 (NF-κB [1]; after 6 hours) | LPS-induced NF-κB activation, Example 2 (FIG. 2) (NF-κB [1]; early time point (2 hours) post-LPS) | LPS-induced NF-κB activation, Example 2 (FIG. 2) (NF-κB [1]; later time points (4, 6, 24 hours imaged) post-LPS) | LPS-induced eotaxin level in plasma (eotaxin) | LPS-induced TNF-α level in plasma (TNF-α) | LPS-induced IL-1α level in plasma (IL-1α; 2 hours post-LPS injection) | LPS-induced IL-1α level in plasma (IL-1α; 6 hours post-LPS injection) | anti-inflammatory cytokine IL-10 level in plasma (IL-10) | LPS-induced NF-κB activation in harvested tissues (units of light/μg protein, normalized) (NF-κB [2]) | TPA-induced AP-1 activation in skin (AP-1) | CdCl2-induced luciferase expression (HO-1 promoter) (HO-1 promoter; 1 or 10 mg/kg p.o. one hour prior to CdCl2 2 mg/kg i.v., whole body images at 4, 6, 24 hours) | CdCl2-induced luciferase expression (HO-1 promoter), mid back region (HO-1 promoter; mid back region, all time points (4, 6, 24 hours)) | CdCl2-induced luciferase expression (HO-1 promoter), sublingual and lower back regions (HO-1 promoter; sublingual and lower back regions, earlier time points) | IL-13 levels in plasma compared to vehicle (IL-13) | CXCL1 (GRO/KC) levels in plasma (CXCL1 (GRO/KC)) | IC50 (5-HT2A; read-out: affinity (IC50) for 5-HT2A) | affinity for adrenergic receptor al, in words (adrenergic receptor al) | affinity for histamine H1 receptor, in words (histamine H1 receptor) |
| --- | --- | --- | --- | --- | --- | --- | --- | --- | --- | --- | --- | --- | --- | --- | --- | --- | --- | --- | --- | --- |
| O=C1NCCN1CCN1CCN([C@H]2C[C@H](c3ccc(F)cc3)c3ccccc32)CC1 [Lu 21-099] | weaker 5-HT2A affinity | – | – | – | – | – | – | – | – | – | – | – | – | – | – | – | – | – | – | – |
| O=C1NCCN1CCN1CCN([C@@H]2C[C@@H](c3ccc(F)cc3)c3ccccc32)CC1 [Irindalone, (+)-(1R,3S)-1-[2-[4-[3-(p-fluorophenyl)-1-indanyl]-1-piperazinyl]-ethyl]-2-imidazolidinone] | – | broad suppression | broad enhancement | suppression | enhancement | suppressed | suppressed | suppressed | suppressed | increase | Tissue-Selective Effect | dramatically repressed | suppressed | Dramatic suppression | Dramatic suppression | increased | lowered | 3.4 nM | somewhat weaker affinity | somewhat weaker affinity |
